In patent publication US11858878B2, “Gemini surfactant composition and method for treating subterranean rock” (KING FAHD UNIVERSITY OF PETROLEUM AND MINERALS, priority 2018, dated 2024):

Assays:
[1] = Surface tension measurements by pendant drop method in water (cmc and surface properties); assay type: physicochemical; settings: for Amin (nominal surface area per molecule) / Γmax × 10^6 (highest surface access at the air-water interface): air-water interface; for πcmc (ability to lower the surface tension of water) / γcmc (surface tension at cmc) / cmc (critical micelle concentration) / surface tension at all investigated concentrations (rank among surfactants): water; for γcmc (surface tension at cmc) / cmc (critical micelle concentration): pendant drop; for cmc (critical micelle concentration): intersection of two lines in plot of surface tension versus concentration; for surface tension at all investigated concentrations (rank among surfactants): FIGS. 9 and 10
Procedure: Surface Properties. Surface tensions were identified with the help of pendant drop method at 20° C. using Biolin Scientific Attension instrument. Water was used as a solvent for all surface tension experiments. The reported data points of all surface tension measurements are average equilibrium values. The critical micelle concentration (cmc) was measured from the intersection point of two lines in the plot of surface tension versus concentration.
Surface Tension Measurements. […] The surface properties can be related to the different chain length, spacer length, spacer rigidity, and to the presence of different counterions in the gemini surfactants.
The gemini surfactant ability to lower the surface tension of water (πcmc), highest surface access (rmax) at the interface of air-water, as well as nominal surface area per molecule (Amin) was given in Table 1. The method used to calculate these properties was also given in our previous publication; Hussain S S, Animashaun M A, Kamal M S, Ullah N, Hussein I A, Sultan A S (2016) Synthesis, Characterization and Surface Properties of Amidosulfobetaine Surfactants Bearing Odd-Number Hydrophobic Tail. J Surfactants Deterg 19 (2):413-420, incorporated herein by reference in its entirety.

[2] = Long-term thermal stability: aging of aqueous solutions, followed by NMR and FTIR; assay type: physicochemical; settings: aqueous solution, sealed tube, 90° C., 10 days
Procedure: Long-Term Thermal Stability. Long-term thermal stability was assessed using a novel approach based on an aging technique. Aqueous solutions of gemini surfactants (1)-(6) were aged in a sealed tube for 10 days at 90° C. NMR (^1H, ^13C) and FTIR instruments were used to identify the changes in the structure of the surfactants after aging.
The short-term and long-term thermal stability of the synthesized gemini surfactants (1)-(6) were investigated. […] (FIG. 2). The long-term thermal stability of the gemini surfactants (1)-(6) was examined using a novel approach based on aging technique where the aqueous solutions of surfactants were aged in a sealed tube at 90° C. for 10 days. NMR (^1H, ^13C) and FTIR instruments were used to study the change in the structure of the surfactants after aging at a different period. […]
Similarly, the olefinic protons in the spacer group of 10 days aged sample of gemini surfactants 1 (FIG. 3) were also detected. […]
According to ^13C NMR spectra of the 10 days aged samples of gemini surfactants (1) and (6)(FIGS. 4 and 6), the methyl [—(CH2)n—CH3)] and methylene carbon in hydrophobic tail of gemini surfactants (1) and (6) were clearly identified. […] The olefinic carbon in hydrophobic tail of gemini surfactant (6) (FIG. 6) as well as the olefinic carbon in spacer group of gemini surfactant 1 (FIG. 4) were also detected. […]

[3] = aqueous solution; cited from earlier work

Q: Which results are given for `CCCCCCCCCCCC(=O)NCCC[N+](C)(C)C/C=C/C[N+](C)(C)CCCNC(=O)CCCCCCCCCCC.[Br-].[Br-]` [Surfactant 1]?
A: Amin (nominal surface area per molecule) [1]: 0.91 nm^2; Γmax × 10^6 (highest surface access at the air-water interface) [1]: 1.81 mol m^−2; πcmc (ability to lower the surface tension of water) [1]: 35.77 mN m^−1; γcmc (surface tension at cmc) [1]: 36.23 mN m^−1; cmc (critical micelle concentration) [1]: 0.000256 mol/L; long-term thermal stability (structure change by NMR, FTIR after aging) [2]: no structural changes occurred

Q: Which “Amin (nominal surface area per molecule)” value [1] does the source give for `CCCCCCCCCCCC(=O)NCCC[N+](C)(C)C/C=C\C[N+](C)(C)CCCNC(=O)CCCCCCCCCCC.[Cl-].[Cl-]` [Surfactant 2] here?
A: 1.05 nm^2

Q: And the “Γmax × 10^6 (highest surface access at the air-water interface)” value [1]?
A: 1.60 mol m^−2

Q: And the “πcmc (ability to lower the surface tension of water)” value [1]?
A: 33.88 mN m^−1

Q: What about the “surface tension at all investigated concentrations (rank among surfactants)” value [1] of the same compound?
A: highest surface tension

Q: And the “γcmc (surface tension at cmc)” value [1]?
A: 38.12 mN m^−1

Q: Which results are given for `CCCCCCCC/C=C\CCCCCCCC(=O)NCCC[N+](C)(C)CCCC[N+](C)(C)CCCNC(=O)CCCCCCC/C=C\CCCCCCCC.[Br-].[Br-]` [Surfactant 5]?
A: Amin (nominal surface area per molecule) [1]: 0.73 nm^2; Γmax × 10^6 (highest surface access at the air-water interface) [1]: 2.26 mol m^−2; πcmc (ability to lower the surface tension of water) [1]: 39.08 mN m^−1; γcmc (surface tension at cmc) [1]: 32.92 mN m^−1; cmc (critical micelle concentration) [1]: 0.000105 mol/L

Q: With `CCCCCCCCCCCCOS(=O)(=O)[O-].[Na+]` [sodium dodecyl sulfate (SDS), sodium dodecyl sulfate] as the compound, how does the “temperature of prolonged heating that causes decomposition” value [3] read?
A: ≥ 40 °C

Q: For `CCCCCCCC/C=C\CCCCCCCC(=O)NCCC[N+](C)(C)C/C=C/C[N+](C)(C)CCCNC(=O)CCCCCCC/C=C\CCCCCCCC.[Br-].[Br-]` [Surfactant 3], which “Amin (nominal surface area per molecule)” value [1] is on record?
A: 0.86 nm^2

Q: And the “Γmax × 10^6 (highest surface access at the air-water interface)” value [1]?
A: 1.92 mol m^−2

Q: What about the “πcmc (ability to lower the surface tension of water)” value [1] of the same compound?
A: 36.33 mN m^−1

Q: What about the “γcmc (surface tension at cmc)” value [1] of the same compound?
A: 35.67 mN m^−1

Q: And the “cmc (critical micelle concentration)” value [1]?
A: 0.000158 mol/L

Q: What does the source list for `CCCCCCCC/C=C\CCCCCCCC(=O)NCCC[N+](C)(C)C/C=C\C[N+](C)(C)CCCNC(=O)CCCCCCC/C=C\CCCCCCCC.[Cl-].[Cl-]` [Surfactant 4]?
A: Amin (nominal surface area per molecule) [1]: 1.01 nm^2; Γmax × 10^6 (highest surface access at the air-water interface) [1]: 1.64 mol m^−2; πcmc (ability to lower the surface tension of water) [1]: 34.77 mN m^−1; γcmc (surface tension at cmc) [1]: 37.23 mN m^−1; cmc (critical micelle concentration) [1]: 0.000291 mol/L

Q: Which results are given for `CCCCCCCC/C=C\CCCCCCCC(=O)NCCC[N+](C)(C)CCCCCC[N+](C)(C)CCCNC(=O)CCCCCCC/C=C\CCCCCCCC.[Br-].[Br-]` [Surfactant 6]?
A: Amin (nominal surface area per molecule) [1]: 0.70 nm^2; Γmax × 10^6 (highest surface access at the air-water interface) [1]: 2.38 mol m^−2; πcmc (ability to lower the surface tension of water) [1]: 41.66 mN m^−1; surface tension at all investigated concentrations (rank among surfactants) [1]: least surface tension; γcmc (surface tension at cmc) [1]: 30.34 mN m^−1; cmc (critical micelle concentration) [1]: 7.7e-05 mol/L; long-term thermal stability (structure change by NMR, FTIR after aging) [2]: no structural changes occurred
